From the Kinase Knowledgebase extract (Sharma et al. 2016)

Tests used:
PIK3CG (human) = PIK3CG (human) (UniProt P48736); test: Assessment of PIK3CG Kinase Activity
PIK3CB (Human) = PIK3CB (Human) (UniProt P42338); test: Assessment of PIK3CB Kinase Activity
PIK3CD (Human) [1] = target: PIK3CD (Human) (UniProt O00329); test: Assessment of PIK3CD Kinase Activity
PIK3CD (Human) [2] = target: PIK3CD (Human) (UniProt O00329); test: Assessment of PIK3CD Kinase Activity in RAJI Cells
PIK3CA (human) = PIK3CA (human) (UniProt P42336); test: Assessment of PIK3CA Kinase Activity
Chain of PIK3CA (human) (P42336 whole entry, looked up): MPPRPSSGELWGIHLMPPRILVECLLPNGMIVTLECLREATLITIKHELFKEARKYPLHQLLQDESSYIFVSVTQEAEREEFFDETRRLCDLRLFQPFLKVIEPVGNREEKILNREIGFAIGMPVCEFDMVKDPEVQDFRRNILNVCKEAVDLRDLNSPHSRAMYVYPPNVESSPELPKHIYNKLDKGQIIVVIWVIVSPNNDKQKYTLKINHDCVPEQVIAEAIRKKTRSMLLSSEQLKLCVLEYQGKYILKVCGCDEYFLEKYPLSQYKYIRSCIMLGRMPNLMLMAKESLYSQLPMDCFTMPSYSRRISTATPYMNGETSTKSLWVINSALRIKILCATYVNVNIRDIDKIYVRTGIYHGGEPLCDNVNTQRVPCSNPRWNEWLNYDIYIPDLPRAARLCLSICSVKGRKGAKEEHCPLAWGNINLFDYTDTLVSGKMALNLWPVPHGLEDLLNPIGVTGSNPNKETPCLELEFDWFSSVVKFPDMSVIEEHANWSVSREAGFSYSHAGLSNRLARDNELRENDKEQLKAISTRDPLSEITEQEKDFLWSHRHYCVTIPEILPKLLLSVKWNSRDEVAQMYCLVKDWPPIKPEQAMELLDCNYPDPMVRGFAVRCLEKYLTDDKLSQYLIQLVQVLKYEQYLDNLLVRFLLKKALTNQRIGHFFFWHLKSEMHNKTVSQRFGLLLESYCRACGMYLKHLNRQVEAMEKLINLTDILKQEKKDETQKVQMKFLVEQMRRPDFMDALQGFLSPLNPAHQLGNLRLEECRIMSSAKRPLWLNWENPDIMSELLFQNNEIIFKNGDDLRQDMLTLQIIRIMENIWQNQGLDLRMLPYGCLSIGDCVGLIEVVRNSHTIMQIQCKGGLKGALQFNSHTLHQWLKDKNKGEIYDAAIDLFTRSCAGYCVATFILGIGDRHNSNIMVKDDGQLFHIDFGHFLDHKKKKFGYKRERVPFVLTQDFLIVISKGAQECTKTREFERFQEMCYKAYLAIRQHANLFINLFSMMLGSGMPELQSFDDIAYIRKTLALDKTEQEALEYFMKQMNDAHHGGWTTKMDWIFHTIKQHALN

Chain of PIK3CG (human) (P48736 whole entry, looked up): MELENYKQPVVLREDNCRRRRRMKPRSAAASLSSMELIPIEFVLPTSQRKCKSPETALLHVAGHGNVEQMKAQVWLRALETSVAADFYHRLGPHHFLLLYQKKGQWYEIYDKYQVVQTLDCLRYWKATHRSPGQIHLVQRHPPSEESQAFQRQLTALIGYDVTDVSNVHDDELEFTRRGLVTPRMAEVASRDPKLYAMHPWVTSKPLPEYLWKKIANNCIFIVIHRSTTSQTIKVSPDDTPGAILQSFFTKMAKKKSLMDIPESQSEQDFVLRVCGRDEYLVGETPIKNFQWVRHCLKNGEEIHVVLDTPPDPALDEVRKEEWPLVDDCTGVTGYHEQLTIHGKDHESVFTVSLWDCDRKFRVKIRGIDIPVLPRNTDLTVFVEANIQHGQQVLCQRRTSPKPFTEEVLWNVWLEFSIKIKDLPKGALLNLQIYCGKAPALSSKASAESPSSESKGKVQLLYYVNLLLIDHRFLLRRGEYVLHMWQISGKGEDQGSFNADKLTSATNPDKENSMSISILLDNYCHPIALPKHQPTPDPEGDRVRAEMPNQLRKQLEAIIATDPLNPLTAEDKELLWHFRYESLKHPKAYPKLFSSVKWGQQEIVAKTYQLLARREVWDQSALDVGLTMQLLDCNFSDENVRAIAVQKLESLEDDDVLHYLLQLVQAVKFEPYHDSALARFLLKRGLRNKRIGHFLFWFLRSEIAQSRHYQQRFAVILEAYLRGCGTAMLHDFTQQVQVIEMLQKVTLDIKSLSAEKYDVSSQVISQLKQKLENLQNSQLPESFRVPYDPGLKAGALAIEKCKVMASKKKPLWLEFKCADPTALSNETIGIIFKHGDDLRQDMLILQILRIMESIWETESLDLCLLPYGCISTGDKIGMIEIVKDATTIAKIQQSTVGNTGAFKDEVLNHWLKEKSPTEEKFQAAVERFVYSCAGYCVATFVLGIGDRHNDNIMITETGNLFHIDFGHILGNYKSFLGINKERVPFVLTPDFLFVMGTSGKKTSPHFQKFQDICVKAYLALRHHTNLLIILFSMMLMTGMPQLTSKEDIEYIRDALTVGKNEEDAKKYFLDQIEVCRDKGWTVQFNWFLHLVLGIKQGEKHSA
Chain of PIK3CB (Human) (P42338 whole entry, looked up): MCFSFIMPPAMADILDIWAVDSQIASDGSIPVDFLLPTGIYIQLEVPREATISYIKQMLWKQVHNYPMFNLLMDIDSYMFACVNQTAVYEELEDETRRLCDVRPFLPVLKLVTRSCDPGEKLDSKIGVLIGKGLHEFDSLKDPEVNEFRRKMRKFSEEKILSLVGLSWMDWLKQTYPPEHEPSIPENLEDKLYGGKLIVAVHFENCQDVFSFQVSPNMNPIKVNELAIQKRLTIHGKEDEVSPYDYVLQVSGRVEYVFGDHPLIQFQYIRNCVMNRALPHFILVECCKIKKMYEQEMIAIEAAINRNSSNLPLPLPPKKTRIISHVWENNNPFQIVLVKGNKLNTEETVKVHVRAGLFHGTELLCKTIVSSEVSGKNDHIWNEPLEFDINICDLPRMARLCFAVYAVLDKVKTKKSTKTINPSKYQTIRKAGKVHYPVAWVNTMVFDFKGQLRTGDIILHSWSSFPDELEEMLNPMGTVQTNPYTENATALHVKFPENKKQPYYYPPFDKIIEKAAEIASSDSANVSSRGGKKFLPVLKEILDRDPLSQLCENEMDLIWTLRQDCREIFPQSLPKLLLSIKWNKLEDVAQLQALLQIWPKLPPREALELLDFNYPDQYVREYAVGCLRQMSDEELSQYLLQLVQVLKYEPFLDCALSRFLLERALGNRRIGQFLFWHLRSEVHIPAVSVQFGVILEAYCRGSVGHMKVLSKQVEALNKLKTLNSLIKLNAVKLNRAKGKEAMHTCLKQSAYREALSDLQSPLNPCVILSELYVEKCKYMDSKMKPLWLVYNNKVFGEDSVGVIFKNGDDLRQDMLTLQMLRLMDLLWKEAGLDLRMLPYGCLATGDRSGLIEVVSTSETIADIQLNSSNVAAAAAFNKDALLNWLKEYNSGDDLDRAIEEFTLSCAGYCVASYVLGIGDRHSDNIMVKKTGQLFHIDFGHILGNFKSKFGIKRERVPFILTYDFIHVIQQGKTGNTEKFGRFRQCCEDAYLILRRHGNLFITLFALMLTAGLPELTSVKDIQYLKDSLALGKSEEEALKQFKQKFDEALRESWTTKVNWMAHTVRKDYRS
Chain of PIK3CD (Human) (O00329 whole entry, looked up): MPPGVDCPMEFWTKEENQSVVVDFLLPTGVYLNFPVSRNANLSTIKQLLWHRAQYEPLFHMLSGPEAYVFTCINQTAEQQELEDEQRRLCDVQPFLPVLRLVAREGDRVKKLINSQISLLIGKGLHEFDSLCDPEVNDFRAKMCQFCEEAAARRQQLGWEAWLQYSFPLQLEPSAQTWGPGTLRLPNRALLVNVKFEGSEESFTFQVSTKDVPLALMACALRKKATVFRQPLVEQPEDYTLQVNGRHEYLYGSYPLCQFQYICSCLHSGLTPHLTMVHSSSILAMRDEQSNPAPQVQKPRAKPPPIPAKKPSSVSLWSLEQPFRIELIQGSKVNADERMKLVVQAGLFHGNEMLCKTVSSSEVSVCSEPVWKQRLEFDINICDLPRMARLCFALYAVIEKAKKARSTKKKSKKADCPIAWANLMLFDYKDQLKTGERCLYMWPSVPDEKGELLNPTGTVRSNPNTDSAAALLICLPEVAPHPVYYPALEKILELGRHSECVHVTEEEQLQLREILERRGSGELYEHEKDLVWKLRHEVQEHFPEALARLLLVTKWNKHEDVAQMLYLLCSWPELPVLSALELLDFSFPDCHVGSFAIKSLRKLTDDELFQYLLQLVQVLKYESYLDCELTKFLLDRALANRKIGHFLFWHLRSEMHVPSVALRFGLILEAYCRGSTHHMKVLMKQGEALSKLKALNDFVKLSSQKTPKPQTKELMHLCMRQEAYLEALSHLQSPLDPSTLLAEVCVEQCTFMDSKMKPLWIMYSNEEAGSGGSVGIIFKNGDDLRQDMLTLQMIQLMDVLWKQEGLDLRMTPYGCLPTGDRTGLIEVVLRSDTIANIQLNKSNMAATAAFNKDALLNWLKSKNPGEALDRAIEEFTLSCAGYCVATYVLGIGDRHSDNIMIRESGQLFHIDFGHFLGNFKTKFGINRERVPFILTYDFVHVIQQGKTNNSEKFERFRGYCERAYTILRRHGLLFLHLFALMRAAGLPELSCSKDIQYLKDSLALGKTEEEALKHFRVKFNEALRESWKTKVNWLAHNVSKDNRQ

Row | Compound | IC50 (PIK3CG (human)) [nM] | IC50 (PIK3CB (Human)) [nM] | IC50 (PIK3CD (Human) [1]) [nM] | IC50 (PIK3CD (Human) [2]) [nM] | IC50 (PIK3CA (human)) [nM]
1 | COc1ccc(-c2cnc(N)nc2N[C@@H](C)c2cc3cccc(Cl)c3c(=O)n2-c2ccccc2)cn1 | < 100 | > 10000 | 100 to 1000 | < 100 | –
2 | COc1cccc(-n2c([C@H](C)Nc3nc(N)ncc3C#N)cc3cccc(Cl)c3c2=O)c1 | < 100 | – | 100 to 1000 | < 100 | > 10000
3 | C[C@H](Nc1nc(N)ncc1-c1cccc(S(C)(=O)=O)c1)c1cc2cccc(C(F)(F)F)c2c(=O)n1-c1ccccc1 | 100 to 1000 | – | 100 to 1000 | < 100 | –
4 | C[C@H](Nc1nc(N)ncc1-c1cncc(S(C)(=O)=O)c1)c1cc2cccc(Cl)c2c(=O)n1-c1ccccc1 | 100 to 1000 | – | – | < 100 | –
5 | Cc1ncc(-c2cccc3cc([C@H](C)Nc4ncnc(N)c4C#N)n(-c4ccon4)c(=O)c23)cn1 | > 10000 | > 10000 | 100 to 1000 | < 100 | > 10000
6 | COc1ncc(-c2cccc3cc([C@H](C)Nc4nc(N)ncc4C#N)n(-c4ccon4)c(=O)c23)cn1 | – | > 10000 | 100 to 1000 | < 100 | > 10000
7 | N#Cc1cnc(N)nc1NCc1cc2cccc(Cl)c2c(=O)n1-c1ccccc1 | 100 to 1000 | – | < 100 | < 100 | –
8 | C[C@H](Nc1nc(N)ncc1-c1cn[nH]c1)c1cc2cccc(Cl)c2c(=O)n1-c1ccccc1 | < 100 | > 10000 | 100 to 1000 | < 100 | > 10000
9 | C[C@H](Nc1nc(N)ncc1-c1cccc(S(=O)(=O)C2CC2)c1)c1cc2cccc(Cl)c2c(=O)n1-c1ccccc1 | < 100 | – | < 100 | < 100 | –
10 | COc1ncc(-c2cccc3cc([C@H](C)Nc4nc(N)ncc4C#N)n(C(C)C)c(=O)c23)cn1 | 100 to 1000 | > 10000 | < 100 | < 100 | –
11 | C[C@H](Nc1nc(N)ncc1C#N)c1cc2cccc(Cl)c2c(=O)n1-c1c(F)cccc1F | 100 to 1000 | – | – | < 100 | > 10000
12 | C[C@H](Nc1nc(N)ncc1C#N)c1cc2cccc(-c3ccc(=O)n(C)c3)c2c(=O)n1-c1ccon1 | 100 to 1000 | – | – | < 100 | –
13 | C[C@H](Nc1nc(N)ncc1-c1cccc(S(C)(=O)=O)c1)c1cc2cccc(Cl)c2c(=O)n1-c1ccccc1 | < 100 | – | 100 to 1000 | < 100 | –
14 | CC(C)C(=O)c1cnc(N)nc1N[C@@H](C)c1cc2cccc(Cl)c2c(=O)n1-c1ccccc1 | 100 to 1000 | > 10000 | 100 to 1000 | < 100 | –
15 | C[C@H](Nc1nc(N)ncc1-c1cccc(S(=O)(=O)N(C)C)c1)c1cc2cccc(Cl)c2c(=O)n1-c1ccccc1 | < 100 | 100 to 1000 | < 100 | < 100 | 100 to 1000
16 | CCS(=O)(=O)c1cccc(-c2cnc(N)nc2N[C@@H](C)c2cc3cccc(Cl)c3c(=O)n2-c2ccccc2)c1 | > 10000 | 100 to 1000 | 100 to 1000 | < 100 | –
17 | COC(=O)c1cccc(-n2c([C@H](C)Nc3nc(N)ncc3C#N)cc3cccc(Cl)c3c2=O)c1 | – | > 10000 | 100 to 1000 | < 100 | –
18 | Cc1ccc(NS(C)(=O)=O)cc1-c1cnc(N)nc1N[C@@H](C)c1cc2cccc(Cl)c2c(=O)n1-c1ccccc1 | < 100 | – | < 100 | < 100 | > 10000
19 | CNS(=O)(=O)c1cccc(-c2cnc(N)nc2N[C@@H](C)c2cc3cccc(Cl)c3c(=O)n2-c2ccccc2)c1 | < 100 | 100 to 1000 | 100 to 1000 | < 100 | –
20 | C[C@H](Nc1nc(N)ncc1C#N)c1cc2cccc(Cl)c2c(=O)n1-c1cc(F)cc(F)c1 | < 100 | > 10000 | 100 to 1000 | < 100 | > 10000
21 | C[C@H](Nc1nc(N)ncc1-c1cncs1)c1cc2cccc(-c3ccc(=O)n(C)c3)c2c(=O)n1-c1ccccc1 | < 100 | > 10000 | < 100 | < 100 | > 10000
22 | C[C@H](Nc1nc(N)ncc1C#N)c1cc2cccc(Cl)c2c(=O)n1-c1ccc(F)c(F)c1 | < 100 | – | – | < 100 | > 10000
23 | C[C@H](Nc1nc(N)ncc1-c1cccc(NS(C)(=O)=O)c1)c1cc2cccc(Cl)c2c(=O)n1-c1ccccc1 | < 100 | – | < 100 | < 100 | –
24 | COc1cc(-n2c([C@H](C)Nc3nc(N)ncc3C#N)cc3cccc(Cl)c3c2=O)ccc1F | < 100 | – | – | < 100 | > 10000
25 | CNC(=O)c1cnc(N)nc1N[C@@H](C)c1cc2cccc(-c3ccnc(OC)c3)c2c(=O)n1-c1ccccc1 | < 100 | 100 to 1000 | < 100 | – | 100 to 1000
26 | C[C@H](Nc1nc(N)ncc1C#N)c1cc2cccc(-c3cncc(NS(C)(=O)=O)c3)c2c(=O)n1-c1ccccc1 | < 100 | – | – | < 100 | –
27 | C[C@H](Nc1nc(N)ncc1C#N)c1cc2cccc(Cl)c2c(=O)n1C1CC1 | < 100 | – | – | < 100 | > 10000
